ChEMBL document CHEMBL5724914, “Linking interpersonal differences in gut microbiota composition and drug biotransformation activity” (2024)

Legend:
[1] = human gut metagenome, 24 h, 2 µM
[2] = human gut metagenome, 24 h, 2 µM; remark: listed apart in the source
[3] = (§1) The drug is tested on Z-019 corresponding to rat gut metagenome with ENA study accession number: PRJEB37062 and ENA sample accession number: ERS12561818 for biotransformation under anaerobic condition. The drug concentrations were measured over 9 timepoints collected between 0 and 24 hours of incubation by liquid-chromatography-coupled mass spectrometry (LC–MS); details: 2 µM
[4] = human gut metagenome, 24 h, 2 µM; remark: listed apart in the source
[5] = human gut metagenome, 24 h, 2 µM; remark: listed apart in the source
[6] = human gut metagenome, 24 h, 2 µM; remark: listed apart in the source
[7] = human gut metagenome, 24 h, 2 µM; remark: listed apart in the source
[8] = human gut metagenome, 24 h, 2 µM; remark: listed apart in the source
[9] = human gut metagenome, 24 h, 2 µM; remark: listed apart in the source
[10] = as §1, with “on Z-024” for “on Z-019”, “to pig” for “to rat”, “number: ERS12561823” for “number: ERS12561818”; details: 2 µM
[11] = human gut metagenome, 24 h, 2 µM; remark: listed apart in the source
[12] = as §1, with “on WLS-073” for “on Z-019”, “to human” for “to rat”, “number: ERS12561749” for “number: ERS12561818”; details: 2 µM
[13] = as §1, with “on WLS-069” for “on Z-019”, “to human” for “to rat”, “number: ERS12561748” for “number: ERS12561818”; details: 2 µM
[14] = as §1, with “on Z-017” for “on Z-019”, “to mouse” for “to rat”, “number: ERS12561816” for “number: ERS12561818”; details: 2 µM
[15] = as §1, with “on WLS-052” for “on Z-019”, “to human” for “to rat”, “number: ERS12561747” for “number: ERS12561818”; details: 2 µM
[16] = human gut metagenome, 24 h, 2 µM; remark: listed apart in the source
[17] = as §1, with “on WLS-170” for “on Z-019”, “to human” for “to rat”, “number: ERS12561762” for “number: ERS12561818”; details: 2 µM
[18] = human gut metagenome, 24 h, 2 µM; remark: listed apart in the source
[19] = as §1, with “Z-007” for “Z-019”, “ERS12561807” for “ERS12561818”; details: 2 µM
[20] = as §1, with “on Z-016” for “on Z-019”, “to mouse” for “to rat”, “number: ERS12561815” for “number: ERS12561818”; details: 2 µM

Measured: Bacterial Biotransformation
Note: call rule not given here.

O=C(NC(Cc1cc(=O)[nH]c2ccccc12)C(=O)O)c1ccc(Cl)cc1 (stereo not given) [REBAMIPIDE]
Compound metabolized: [4] | [5] | [6] | [10] | [11] | [18]
Compound NOT metabolized: all other assays above

CCOc1cc(CC(=O)N[C@@H](CC(C)C)c2ccccc2N2CCCCC2)ccc1C(=O)O [REPAGLINIDE]
Compound NOT metabolized: [3] | [9] | [16]
Compound metabolized: all other assays above

CC(N)C12CC3CC(CC(C3)C1)C2 (stereo not given) [RIMANTADINE]
Compound metabolized: [17]
Compound NOT metabolized: all other assays above

CCN(C)C(=O)Oc1cccc([C@H](C)N(C)C)c1.O=C(O)C(O)C(O)C(=O)O [RIVASTIGMINE TARTRATE]
Compound metabolized: [5] | [15]
Compound NOT metabolized: all other assays above
